Consider 18 compounds from patent US4975433A, “Aminomethyl derivatives of biologically active substances and enhanced delivery thereof across topical membranes” (priority 1989, dated 1990).

The nature of series [1]: half-lives of hydrolysis of cytosine and 5-fluorocytosine derivatives in phosphate buffer. To be noted: for half-life: phosphate buffer; for pH dependence of hydrolysis rate: basic pH.
For series [2] the following is noted: mouse; for Kp, initial phase: 100000 uM.
Procedure: The diffusion experiments were performed in triplicate for each compound. Three female, hairless mice were sacrificed by cervical dislocation, and the entire dorsal skin removed by blunt dissection from the underlying tissues. The skins were secured with a rubber gasket to the diffusion cell, with the dermis in contact with the receptor phase. The receptor side of the cell was filled with isotonic phosphate buffer (pH 73 at 32°, 0.05 M, μ=0.15) with 1% formaldehyde added to inhibit microbial growth. The receptor phase was kept at a constant temperature of 32° and was stirred magnetically.
The donor phases were applied as suspensions (0.5 ml, 0.1 M) to the skin surface. […] Each sample was replaced by an equal amount of fresh buffer.
These last two steps were used to determine the mass balance. This part of the diffusion cell study is termed the first application.
Samples were obtained using the same schedule described above.
The slopes for each phase of the plotted lines were obtained by linear regression analysis (r>0.990); the slopes were then divided by the surface area of the diffusion cells (4.9 cm^2) to obtain a value for flux (J) in mg/cm^2 /h. The reported fluxes are the average flux of the three diffusion cells.
A short description of series [3]: lipid and aqueous solubilities of 5-FC and its derivatives. The format is physicochemical. To be noted: for IPM solubility relative to other compound: XIV vs 5-FC molar basis, XIIb vs XIIa; for Solubility, water / solubility: distilled water (pH 5.5), approximate, decomposing; for Solubility, IPM / solubility at 48 h: isopropyl myristate; for Solubility, IPM: 2880 min; for solubility at 48 h: organic solvent or mixture, read-out: Solubility, IPM.

The nature of series [4]: solubilities of prodrugs and parent drugs in selected solvents (Example 8). Conditions: for trend in IPM solubility: NMR of neat filtrates, UV.
Series [5] can be described thus: stability of the bases in water, isopropyl myristate and moisture (NMR, TLC). The format is physicochemical. To be noted: for qualitative order of stability to atmospheric moisture: IPM solution, NMR; for stability in IPM: 24 hours after sonication for 3 hours; for degraded at 48 h: isopropyl myristate, atmospheric moisture, room temperature, two days, read-out: decomposition of base prodrugs in IPM filtrates. The procedure:
All the suspensions or solutions were prepared by sonicating mixtures of the drug or prodrugs in the appropriate solvent in sealed flasks for 3 hr. The sealed solutions or suspensions that resulted were allowed to sit at room temperature for 24 hr, then they were briefly (15 sec.) vortexed and 0.50 ml samples were removed and applied to the membranes (area=4.9 cm^2). After an additional 24 hr the remaining sealed suspensions of the prodrugs were filtered, the filtrates and residues were analyzed by inspection of their NMR spectra and TLC to determine if any decomposition of the prodrugs had taken place (none had), and the filtrates were analyzed by UV spectroscopy to determine if the amount of prodrug still in solution corresponded to the solubilities determined in separate experiments (they did). The filtrates were analyzed neat while the residues were dissolved in CDCl3 and the spectra were analyzed for the appearance of the C8 ---H absorption of theophylline at δ7.77 and the C6 ---H absorption of 5-FU at δ7.7. TLC analyses were run using ether as the eluents. The remaining suspensions of the parent drugs were also filtered and the filtrates were analyzed by UV spectroscopy to determine if the amount of drug still in solution corresponded to the solubilities determined in separate experiments (they did).
The derivatives are not stable in the presence of water. […] NMR experiments also supported the low stability of the derivatives in water. Solutions of the bases were prepared in dry DMSO-d6 and then D2 O was added stepwise to the solutions. […] Similar, decomposition of the bases was also observed in other protic solvents such as methanol and propylene glycol.
On the other hand, the stability of the bases in IPM was variable.
When the IPM filtrates, which were used to determine the IPM solubilities of II and III were exposed to atmospheric moisture at room temperature for two days, 50-80% decomposition of the base prodrugs in solution occurred and precipitation of theophylline resulted as determined by analysis of NMR spectra of the solutions and precipitates. The IPM solutions of the other bases eventually decomposed 1-10% upon prolonged exposure (two weeks) to atmospheric moisture. Although no quantitative data were determined, the qualitative order of stability of the theophylline bases to exposure to atmospheric moisture in IMP solution was V=VI>>IV>III>II,as determined by analysis of NMR spectra of their IPM solutions and precipitates from IPM solutions.

[6] abbreviates: pH 7.1, Half-life of hydrolysis, 5-FC derivatives.
Where [7] appears, read: pH 7.1, Half-life of hydrolysis, cytosine derivatives.
[8] abbreviates: isopropyl myristate, organic solvent or mixture, Solubility, IPM, suspensions sonicated for 3 hr.
Setting [9] is: water, pH 7, water, Solubility, water (apparent).
[10] abbreviates: isopropyl myristate, organic solvent or mixture, Solubility, IPM, stirred at room temperature 24 hr.

In brackets after ≈: the same amount, converted by molar mass. Several values for one entry are separate records, joined by “and”; a condition that tells them apart may be missing. Equal values may be shown once. Read-outs that look alike come from different tables or passages of the source. Marks after values point to notes of the source that are not given here.

Turning to `O=c1nc(NCN2CCCCC2)c(F)cn1CN1CCCCC1` [XIIb, Bis-N^4,1-(1'-piperidinyl)methyl-5-fluorocytosine], in series [1] (pH 7.1 phosphate buffer 0.05 M, 24°), the “Half-life of hydrolysis, 5-FC derivatives” value is 0.90(0.01) min and 0.90 min. The half-life in series [1] (pH 6, Half-life of hydrolysis) came to 0.86 min. In series [1] (pH 8, Half-life of hydrolysis), this compound displayed a half-life of 0.79 min. Also, in series [2], the “Kp, steady-state phase” value is 716 cm/h (× 10^3) and the “Kp, initial phase” value is reported as 174 cm/h (× 10^3). Further, in series [3], the “IPM solubility relative to other compound” value was “twice”; the “Solubility, water” value was 25 mg/ml and 0.08 M; the “Solubility, IPM” value is 3.7 M(× 10^4). In addition, the “Solubility, IPM” value in series [3] (±SD) is 12.0 (0.5) mg/ml × 10^2.

In the case of `Cn1c(=O)c2[nH]cnc2n(C)c1=O` [I], the solubility in series [4] (isopropyl myristate, organic solvent or mixture) was 0.095 mg/mL (≈ 0.527 mM); in series [4] (propylene glycol, organic solvent or mixture), 16.2 mg/mL (≈ 89.9 mM).

For `CN(C)CNc1nc(=O)n(CN(C)C)cc1F` [XIII, Bis-N^4,1-(dimethylamino)methyl-5-fluorocytosine hydrate], the “pH dependence of hydrolysis rate” value in series [1] is given as “hydrolyzed slower at basic pH”. Moreover, the half-life in series [1] (pH 6, Half-life of hydrolysis) is 0.51 min; in series [1] (setting [6]), 0.74 min; in series [1] (pH 8, Half-life of hydrolysis), 0.87 min. Further, in series [2], the “Kp, steady-state phase” value was 365 cm/h (× 10^3). For the same compound, the “Kp, initial phase” value in series [2] is recorded as 149 cm/h (× 10^3). Further, the solubility in series [3] was > 100000 µg/mL and > 400000 µM. In addition, the solubility at 48 h in series [3] amounted to 950 µM; in series [3] (±SD) it was 0.23 mg/mL.

Turning to `O=c1nc(NCN2CCCCC2)ccn1CN1CCCCC1` [VIII, Bis-N^4,1-(1'-piperidinyl)methylcytosine], the half-life in series [1] (setting [7]) was found to be 1.42 min.

`CN1CCN(CNc2ccn(CN3CCN(C)CC3)c(=O)n2)CC1` [XI, Bis-N^4,1-(4'-methyl-1'-piperazinyl)methylcytosine hydrate] yielded a half-life in series [1] (setting [7]) of 27.2 min.

Regarding `O=c1c(F)cn(CN2CCOCC2)c(=O)n1CN1CCOCC1` [VIII], the solubility is 11.8 mg/mL (≈ 35.9 mM) in series [4] (setting [8]) and more than 100 mg/mL in series [4] (setting [9]).

Consider `O=c1nc(NCN2CCCC2)c(F)cn1CN1CCCC1` [XV, Bis-N^4,1-(1'-pyrrolidyl)methyl-5-fluorocytosine hydrate], for which the “pH dependence of hydrolysis rate” value in series [1] is given as “faster”. For the same compound, the half-life was 1.01 min in series [1] (pH 6, Half-life of hydrolysis); 1.05 min in series [1] (setting [6]); 0.66 min in series [1] (pH 8, Half-life of hydrolysis). Further, the solubility in series [3] was > 100000 µg/mL and > 300000 µM. Besides, the solubility at 48 h came to 610 µM in series [3] and 0.18 mg/mL in series [3] (±SD).

Turning to `Cn1c(=O)c2c(ncn2CN2CCOCC2)n(C)c1=O` [V, 7-(4'-Morpholinyl)methyltheophylline], in series [4] (1.0 ml water (pH 7.0) added to 100 mg, sonicated 10 sec, not accurate, rapid decomposition), the “Solubility, water (apparent)” value was more than 100 mg/mL. Also, the “trend in IPM solubility” value in series [4] (IPM) is reported as “III>IV>VI>II>V”. Moreover, the solubility in series [4] (setting [8]) is 1.3 mg/mL (≈ 4.65 mM). Moreover, the solubility in series [4] (setting [9]) is approximately 100 mg/mL (≈ 358 mM). Further, in series [5], the “qualitative order of stability to atmospheric moisture” value (“qualitative order of stability” below) is recorded as “V=VI>>IV>III>II” and the “stability in IPM” value is given as “stable in IPM either in the solid phase or in solution”.

For the compound `CCN(CC)Cn1cnc2c1c(=O)n(C)c(=O)n2C` [III, 7-(Diethylamino)methyltheophylline], the “trend in IPM solubility” value in series [4] (IPM) was “III>IV>VI>II>V”. In addition, in series [4] (setting [10]), the solubility is 32.5 mg/mL (≈ 122 mM). In addition, the solubility in series [4] (setting [9]) was more than 100 mg/mL. In series [5], the “qualitative order of stability” value was “V=VI>>IV>III>II”, the “stability in IPM” value is given as “stable in solution but the IPM insoluble material was theophylline” and the degraded at 48 h lay within 50 to 80%.

As for `CN1CCN(CNc2nc(=O)n(CN3CCN(C)CC3)cc2F)CC1` [XVII, Bis-N^4,1-(4'-methyl-1'piperazinyl)methyl-5-fluorocytosine hydrate], the “pH dependence of hydrolysis rate” value in series [1] is listed as “hydrolyzed slower at basic pH”. The half-life in series [1] (pH 6, Half-life of hydrolysis) turned out to be 20.1 min; in series [1] (setting [6]), 26.3 min; in series [1] (pH 8, Half-life of hydrolysis) it was 28.5 min. In addition, the “Kp, steady-state phase” value in series [2] is recorded as 919 cm/h (× 10^3). In addition, the “Kp, initial phase” value in series [2] is 67.3 cm/h (× 10^3). For the same compound, the solubility in series [3] was > 100000 µg/mL and > 300000 µM. The solubility at 48 h in series [3] worked out at 220 µM; in series [3] (±SD), 0.071 mg/mL.

For the compound `O=c1nc(NCN2CCOCC2)c(F)cn1CN1CCOCC1` [XVI, Bis-N^4,1-(4'-morpholinyl)methyl-5-fluorocytosine hydrate], the “pH dependence of hydrolysis rate” value in series [1] was “hydrolyzed slower at basic pH”. Besides, the half-life is 1.19 min in series [1] (pH 6, Half-life of hydrolysis); 9.1 min in series [1] (setting [6]); 34.2 min in series [1] (pH 8, Half-life of hydrolysis). In addition, the “Kp, steady-state phase” value in series [2] was 213 cm/h (× 10^3). The “Kp, initial phase” value in series [2] is given as 73.9 cm/h (× 10^3). For the same compound, the solubility in series [3] was 25000 µg/mL and 80000 µM. The solubility at 48 h in series [3] amounted to 350 µM; in series [3] (±SD), 0.18 mg/mL.

In series [1] (setting [7]), `CN(C)CNc1ccn(CN(C)C)c(=O)n1` [X, Bis-N^4,1-(dimethylamino)methylcytosine hydrate] yielded a half-life of 1 min.

`CCN(CC)CNc1nc(=O)n(CN(CC)CC)cc1F` [XIV, Bis-N^4,1-(diethylamino)methyl-5-fluorocytosine hydrate] showed a half-life in series [1] (setting [6]) of 0.1 min. Moreover, in series [3], the “IPM solubility relative to other compound” value is reported as “approximately 230 times”; the solubility was > 100000 µg/mL and > 300000 µM; the solubility at 48 h was found to be 9100 µM. Besides, the solubility at 48 h in series [3] (±SD) turned out to be 2.71 mg/mL.

`O=c1nc(NCN2CCCCC2)c(F)cn1CN1CCCCC1` [XIIa, bis-N^4,1-(1'-piperidinyl)methyl-5-fluorocytosine] showed a half-life in series [1] (setting [6]) of 0.89 min. In series [2], the “Kp, steady-state phase” value is recorded as 1671 cm/h (× 10^3). In addition, the “Solubility, water” value in series [3] is 10 mg/ml and 0.03 M. The “Solubility, IPM” value is listed as 5.0 (0.9) mg/ml × 10^2 in series [3] (±SD) and 1.6 M(× 10^4) in series [3].

Take `CCCN(CCC)Cn1cnc2c1c(=O)n(C)c(=O)n2C` [IV, 7-(Dipropylamino)methyltheophylline]: the “trend in IPM solubility” value in series [4] (IPM) is “III>IV>VI>II>V”. For the same compound, the solubility in series [4] (setting [10]) was determined as 27.6 mg/mL (≈ 94.1 mM). Moreover, the solubility in series [4] (setting [9]) is more than 100 mg/mL. Moreover, in series [5], the “qualitative order of stability” value was “V=VI>>IV>III>II” and the “stability in IPM” value is recorded as “stable in solution but the IPM insoluble material was theophylline”.

With `Cn1c(=O)c2c(ncn2CN2CCCC2)n(C)c1=O` [VI, 7-(Pyrrolidyl)methyltheophylline], the “trend in IPM solubility” value in series [4] (IPM) is on record as “III>IV>VI>II>V”. For the same compound, the solubility is 10.7 mg/mL (≈ 40.6 mM) in series [4] (setting [8]) and more than 100 mg/mL in series [4] (setting [9]). Besides, the “qualitative order of stability” value in series [5] is recorded as “V=VI>>IV>III>II”. The “stability in IPM” value in series [5] was “stable in IPM either in the solid phase or in solution”.

Compound `O=c1nc(NCN2CCOCC2)ccn1CN1CCOCC1` [IXb, Bis-N^4,1-(4'-morpholinyl)methylcytosine hydrate] displayed a half-life in series [1] (setting [7]) of 9.72 min.

Turning to `CN(C)Cn1cnc2c1c(=O)n(C)c(=O)n2C` [II], the solubility is 7.6 mg/mL (≈ 32 mM) in series [4] (isopropyl myristate, organic solvent or mixture, Solubility, IPM, both sonicated 3 hr and stirred 24 hr); more than 100 mg/mL in series [4] (setting [9]). Also, the degraded at 48 h in series [5] lay in the range of 50 to 80%.

By half-life is commonly meant how long it takes for the measured level to halve. A low value points to rapid decline. The solubility is the concentration that dissolves in the medium under given conditions.
